The text below walks through data of ChEMBL document CHEMBL1136711, “Synthesis and SAR of bicyclic heteroaryl hydroxamic acid MMP and TACE inhibitors” (Bioorg Med Chem Lett, 2003).

Each structure is given as a SMILES string.

For one assay, the target named is T1, Interstitial collagenase (Homo sapiens, UniProt P03956).
T1 sequence (P03956 whole entry): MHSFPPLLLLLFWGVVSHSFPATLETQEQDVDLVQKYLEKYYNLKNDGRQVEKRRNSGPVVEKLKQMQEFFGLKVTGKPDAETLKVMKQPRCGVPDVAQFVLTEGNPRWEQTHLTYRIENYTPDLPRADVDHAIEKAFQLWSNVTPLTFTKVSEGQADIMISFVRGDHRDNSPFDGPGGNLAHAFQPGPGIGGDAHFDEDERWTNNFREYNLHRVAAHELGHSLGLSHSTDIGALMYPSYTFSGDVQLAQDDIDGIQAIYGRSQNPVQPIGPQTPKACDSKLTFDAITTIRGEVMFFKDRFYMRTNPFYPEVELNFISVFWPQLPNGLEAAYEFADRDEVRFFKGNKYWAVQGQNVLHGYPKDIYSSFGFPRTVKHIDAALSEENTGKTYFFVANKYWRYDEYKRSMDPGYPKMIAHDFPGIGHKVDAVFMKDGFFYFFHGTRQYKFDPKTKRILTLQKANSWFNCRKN
Briefly: Inhibitory activity against matrix metalloprotease 1 (MMP-1).

Assay [1] addresses Disintegrin and metalloproteinase domain-containing protein 17 (Homo sapiens, UniProt P78536). The assay is described as follows: Inhibitory activity against TACE.
The target in assay [2] is Matrix metalloproteinase-9 (Homo sapiens, UniProt P14780). Briefly: Inhibitory activity against matrix metalloprotease 9 (MMP-9).
Sequence of Matrix metalloproteinase-9 (P14780 whole entry): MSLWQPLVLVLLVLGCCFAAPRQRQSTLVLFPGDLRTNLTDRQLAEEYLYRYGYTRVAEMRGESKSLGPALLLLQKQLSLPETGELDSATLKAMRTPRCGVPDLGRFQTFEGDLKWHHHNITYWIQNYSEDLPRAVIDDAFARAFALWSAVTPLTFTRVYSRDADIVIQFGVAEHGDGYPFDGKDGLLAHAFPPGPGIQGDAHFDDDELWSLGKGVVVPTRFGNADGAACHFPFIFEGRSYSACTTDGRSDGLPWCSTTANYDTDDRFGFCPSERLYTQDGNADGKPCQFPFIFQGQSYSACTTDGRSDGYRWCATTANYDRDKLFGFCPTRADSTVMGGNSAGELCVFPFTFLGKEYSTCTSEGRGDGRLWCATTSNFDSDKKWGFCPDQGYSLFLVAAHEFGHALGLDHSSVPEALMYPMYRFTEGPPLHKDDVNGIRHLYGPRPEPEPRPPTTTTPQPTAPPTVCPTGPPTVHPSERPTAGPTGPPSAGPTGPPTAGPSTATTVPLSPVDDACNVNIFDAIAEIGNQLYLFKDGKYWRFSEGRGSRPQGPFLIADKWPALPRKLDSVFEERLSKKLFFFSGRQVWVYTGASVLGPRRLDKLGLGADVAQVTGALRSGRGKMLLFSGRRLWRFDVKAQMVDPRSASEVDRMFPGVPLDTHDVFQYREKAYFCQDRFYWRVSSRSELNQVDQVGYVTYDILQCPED
In another assay the target is Collagenase 3 (Homo sapiens, UniProt P45452). The assay is described as follows: Inhibitory activity against matrix metalloprotease 13 (MMP-13).
For another assay, the system named is THP-1. Briefly: In vitro inhibition of TNF-alpha release at a concentration of 3 uM by using THP cellular assay. The format is functional, cell-based. To be noted: Homo sapiens.
The species entered for the next assay is Bos taurus. The assay is described as follows: Ex vivo inhibition of cartilage degradation at 100 nM concentration in the bovine articular cartilage explant assay. The assay is classed as functional. Conditions: Cartilage tissue.
The test system of another assay is Rattus norvegicus. Briefly: In vivo inhibition of cartilage degradation at 50 mpk po bid in the rat sponge-wrapped cartilage implant model. The format is functional.
In assay [3] the test system is Mus musculus. The assay is described as follows: In vivo inhibition of MMP-13 at 50 mpk po 1 hr after dosing in the mouse dialysis tubing implant assay. The assay is classed as functional.
The subject of assay [4] is Mus musculus. The assay is described as follows: In vivo inhibition of MMP-13 at 25 mpk po 1 hr after dosing in the mouse dialysis tubing implant assay. The format is functional.

Sequence of Disintegrin and metalloproteinase domain-containing protein 17 (P78536 whole entry, the tested form may be a part): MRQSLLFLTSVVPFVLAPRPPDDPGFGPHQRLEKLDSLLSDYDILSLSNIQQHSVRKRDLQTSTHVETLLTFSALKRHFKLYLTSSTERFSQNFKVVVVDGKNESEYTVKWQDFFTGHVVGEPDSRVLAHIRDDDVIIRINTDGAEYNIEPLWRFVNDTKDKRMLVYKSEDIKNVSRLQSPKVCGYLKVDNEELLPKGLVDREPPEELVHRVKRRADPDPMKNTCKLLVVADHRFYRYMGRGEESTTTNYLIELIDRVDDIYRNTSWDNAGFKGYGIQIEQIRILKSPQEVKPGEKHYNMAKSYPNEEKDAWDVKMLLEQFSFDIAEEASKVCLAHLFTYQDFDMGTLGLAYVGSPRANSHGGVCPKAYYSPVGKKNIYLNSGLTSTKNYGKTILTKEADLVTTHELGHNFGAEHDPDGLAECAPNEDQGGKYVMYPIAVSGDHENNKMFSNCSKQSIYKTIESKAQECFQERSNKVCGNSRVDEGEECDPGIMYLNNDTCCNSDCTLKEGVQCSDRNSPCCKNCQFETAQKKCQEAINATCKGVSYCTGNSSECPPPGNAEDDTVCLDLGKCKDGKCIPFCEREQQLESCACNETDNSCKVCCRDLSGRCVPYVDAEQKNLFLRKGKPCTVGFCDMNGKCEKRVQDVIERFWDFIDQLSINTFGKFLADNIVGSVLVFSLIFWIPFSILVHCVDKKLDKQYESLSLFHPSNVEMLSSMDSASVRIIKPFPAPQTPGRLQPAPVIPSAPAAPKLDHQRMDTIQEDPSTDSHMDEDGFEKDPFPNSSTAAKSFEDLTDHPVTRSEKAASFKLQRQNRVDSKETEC

For the compound `Cc1nn(C)c2ncc(C(=O)NO)c(N(C)S(=O)(=O)c3ccc(F)cc3)c12`, the IC50 (usually the midpoint of a concentration-inhibition curve) against Interstitial collagenase is 177 nM; in assay [1] it was more than 1000 nM; in assay [2], 595 nM; against Collagenase 3, 170 nM.
For `CCCCOc1ccc(S(=O)(=O)N(C)c2c(C(=O)NO)cnc3c2c(C)nn3C)cc1`, the concentration for half-maximal inhibition (IC50) at Interstitial collagenase came to 1920 nM; in assay [1] it was 86 nM; in assay [2] it was 7 nM; against Collagenase 3 it was 3 nM.
Consider `COc1ccc(S(=O)(=O)N(Cc2cccnc2)c2c(C(=O)NO)cnc3c2cnn3-c2ccccc2)cc1`, for which the figures for the half-maximal inhibitory concentration (IC50) (in assay [1]; in [2]; against Collagenase 3) were 435 nM, 6 nM and 20 nM, respectively.
As for `COc1ccc(S(=O)(=O)N(C)c2c(C(=O)NO)cnc3c(Br)cccc23)cc1`, it took 296 nM to reach half-maximal inhibition in assay [1] (IC50).
For `COc1ccc(S(=O)(=O)N(Cc2ccccc2)c2c(C(=O)NO)cnc3ccc(Br)cc23)cc1`, the IC50 against Interstitial collagenase was 108 nM; in [1], more than 1000 nM; in assay [2], 8 nM; against Collagenase 3, 6 nM.
For the compound `COc1ccc(S(=O)(=O)N(Cc2cccnc2)c2c(C(=O)NO)cnc3c(I)cccc23)cc1`, the concentration for half-maximal inhibition (IC50) in [1] amounted to 124 nM; in [2] it was 3 nM; on Collagenase 3 it was 3 nM.
For `COc1ccc(S(=O)(=O)N(Cc2ccccc2)c2c(C(=O)NO)cnc3ccc(C(F)(F)F)cc23)cc1`, the IC50 in assay [1] was more than 1000 nM; in assay [2] it was 11 nM; on Collagenase 3 it was 7 nM.
On to `O=C(NO)c1cnc2cc(C(F)(F)F)ccc2c1N(Cc1cccnc1)S(=O)(=O)c1ccc(-c2ccccc2)cc1`, for which the IC50 in [1] worked out at 124 nM; in assay [2], 1160 nM.
Regarding `CC#CCOc1ccc(S(=O)(=O)N(C)c2c(C(=O)NO)cnc3onc(C)c23)cc1`, half-maximal inhibition in assay [1] (IC50) required 6 nM.
`COc1ccc(S(=O)(=O)N(Cc2cccnc2)c2c(C(=O)NO)cnc3c(-c4cccs4)cccc23)cc1`: on Interstitial collagenase, the half-maximal inhibitory concentration (IC50) was 136 nM.
For the compound `COc1ccc(S(=O)(=O)N(Cc2ccccc2)c2c(C(=O)NO)cnc3cc(Br)ccc23)cc1`, the half-inhibitory concentration (IC50) is more than 1000 nM in [1], 11 nM in [2] and 7 nM at Collagenase 3.
As to `CC#CCOc1ccc(S(=O)(=O)N(C)c2c(C(=O)NO)cnc3c2c(C)nn3C)cc1`, the half-maximal inhibitory concentration (IC50) in assay [2] amounted to 100 nM.
On to `CC#CCOc1ccc(S(=O)(=O)N(C)c2c(C(=O)NO)cnc3c(Br)cccc23)cc1`, for which, in the assay on THP-1, the inhibition (usually how much of the control response was suppressed) came out at 32%.
Take `CC#CCOc1ccc(S(=O)(=O)N(C)c2c(C(=O)NO)cnc3c(OC)cccc23)cc1`: the half-maximal inhibitory concentration (IC50) against Collagenase 3 was found to be 9 nM.
Regarding `CN(c1c(C(=O)NO)cnc2ccccc12)S(=O)(=O)c1ccc(Oc2ccncc2)cc1`, the values for the 50% inhibitory concentration (IC50) (against Interstitial collagenase; in assay [1]; against Collagenase 3) were 1010 nM, 124 nM and 1 nM, respectively. Besides, the inhibition at 0.1 µM in the assay filed under Bos taurus amounted to 42%. The inhibition in vivo (usually the percentage by which the read-out fell short of the control) at 50 mg/kg turned out to be 44% with Rattus norvegicus and 90% in the assay with Mus musculus [3].
On to `COc1ccc(S(=O)(=O)N(Cc2cccnc2)c2c(C(=O)NO)cnc3cc(C(F)(F)F)ccc23)cc1`, for which the concentration for half-maximal inhibition (IC50) in [1] is 1000 nM; in assay [2] it was 4 nM; on Collagenase 3, 1 nM.
As for `Cc1nn(C)c2ncc(C(=O)NO)c(N(C)S(=O)(=O)c3ccc(Oc4ccc(Cl)cc4)cc3)c12`, the concentration for half-maximal inhibition (IC50) at Interstitial collagenase is 116 nM; in [1], 356 nM.
On to `C=Cc1cccc2c(N(C)S(=O)(=O)c3ccc(OC)cc3)c(C(=O)NO)cnc12`, for which the 50% inhibitory concentration (IC50) against Interstitial collagenase was determined as 200 nM; in assay [1], 205 nM; in [2] it was 5 nM; at Collagenase 3, 5 nM.
Consider `Cc1ccc(S(=O)(=O)N(Cc2cccnc2)c2c(C(=O)NO)cnc3cc(C(F)(F)F)ccc23)cc1`, for which the IC50 (against Interstitial collagenase; in [1]; in [2]; against Collagenase 3) was more than 1000 nM each time.
Turning to `COc1ccc(S(=O)(=O)N(Cc2cccnc2)c2c(C(=O)NO)cnc3snc(C)c23)cc1`, the IC50 in assay [2] came out at 2 nM.
`COc1ccc(S(=O)(=O)N(Cc2cccnc2)c2c(C(=O)NO)cnc3c2c(C)nn3-c2ccccc2)cc1` had a half-inhibitory concentration (IC50) on Interstitial collagenase of 115 nM.
Compound `Cc1nn(C)c2ncc(C(=O)NO)c(N(C)S(=O)(=O)c3ccc(Oc4ccncc4)cc3)c12` gave an inhibition at 0.1 µM in the assay filed under Bos taurus of 61%. Further, the concentration for half-maximal inhibition (IC50) in assay [1] is more than 100 nM; in [2] it was 2 nM. For the same compound, at 50 mg/kg the inhibition in vivo in the assay on Rattus norvegicus was 46%. In the assay with Mus musculus [4], this compound gave an inhibition in vivo at 25 mg/kg of 54%.
